From article PMC4136709 (ACS Chemical Biology, 2014) come the findings set out here.

One assay addresses T1, PhaCRe (Cupriavidus necator, UniProt P23608).
T1 sequence (P23608 1-589): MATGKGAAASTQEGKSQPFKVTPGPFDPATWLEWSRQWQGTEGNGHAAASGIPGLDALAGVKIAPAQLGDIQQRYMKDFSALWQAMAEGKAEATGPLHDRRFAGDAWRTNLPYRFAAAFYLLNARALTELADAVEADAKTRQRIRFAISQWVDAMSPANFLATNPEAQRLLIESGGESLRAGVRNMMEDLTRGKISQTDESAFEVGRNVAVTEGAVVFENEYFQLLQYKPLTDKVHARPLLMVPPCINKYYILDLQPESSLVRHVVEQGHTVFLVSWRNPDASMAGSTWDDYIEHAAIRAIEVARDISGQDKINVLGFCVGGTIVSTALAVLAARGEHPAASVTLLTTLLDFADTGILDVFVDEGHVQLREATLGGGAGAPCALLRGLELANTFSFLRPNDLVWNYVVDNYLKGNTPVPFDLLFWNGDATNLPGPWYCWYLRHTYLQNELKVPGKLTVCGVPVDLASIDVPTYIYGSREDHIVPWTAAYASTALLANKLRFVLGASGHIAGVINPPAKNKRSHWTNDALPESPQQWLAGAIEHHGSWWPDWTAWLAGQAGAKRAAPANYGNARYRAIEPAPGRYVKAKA
The assay is described as follows: discontinuous DTNB assay of CoA release. Type of assay: biochemical.

Another assay concerns the target T2, PhaECAv (Allochromatium vinosum, UniProt P45370).
T2 sequence (P45370 1-355): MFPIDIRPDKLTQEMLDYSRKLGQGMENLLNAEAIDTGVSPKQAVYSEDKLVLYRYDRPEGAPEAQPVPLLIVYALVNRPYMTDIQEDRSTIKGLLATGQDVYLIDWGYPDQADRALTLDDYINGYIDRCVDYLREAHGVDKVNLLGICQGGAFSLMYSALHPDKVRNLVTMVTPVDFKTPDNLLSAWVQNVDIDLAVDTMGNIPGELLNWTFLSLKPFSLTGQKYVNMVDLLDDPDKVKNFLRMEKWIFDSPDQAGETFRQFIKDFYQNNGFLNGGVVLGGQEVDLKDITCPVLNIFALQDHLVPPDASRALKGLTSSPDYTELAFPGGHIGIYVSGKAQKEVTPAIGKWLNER
T2 sequence (P45372 1-357 partner): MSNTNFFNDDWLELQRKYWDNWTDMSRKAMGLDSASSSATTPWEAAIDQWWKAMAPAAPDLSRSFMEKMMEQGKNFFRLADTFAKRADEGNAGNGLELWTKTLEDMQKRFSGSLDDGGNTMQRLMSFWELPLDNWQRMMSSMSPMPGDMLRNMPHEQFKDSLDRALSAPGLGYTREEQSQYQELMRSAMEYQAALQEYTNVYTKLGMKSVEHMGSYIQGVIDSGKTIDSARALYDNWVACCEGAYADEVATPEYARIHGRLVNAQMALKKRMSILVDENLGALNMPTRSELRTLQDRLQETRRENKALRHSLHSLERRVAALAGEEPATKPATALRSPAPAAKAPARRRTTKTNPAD
The experiment in a line: discontinuous DTNB assay of CoA release. Type of assay: biochemical.

One may read the Ki as the dissociation constant of the complex between target and ligand, obtained from inhibition or displacement. Regarding `C[C@@H](O)CC(=O)CCCNC(=O)CCNC(=O)[C@H](O)C(C)(C)COP(=O)(O)OP(=O)(O)OC[C@H]1O[C@@H](n2cnc3c(N)ncnc32)[C@H](O)[C@@H]1OP(=O)(O)O` [compound 1, HBCH2CoA], the figures for the Ki on PhaCRe and at PhaECAv were 14.1 µM and 40.1 µM, respectively.
